Test results published in the NIST ThermoML archive (doi:10.1016/j.tca.2010.11.002).
± gives the expanded uncertainty stated by the source.

Assays:
[1] = mn = molality of the nth substance listed, in mol/kg; settings: 101 kPa, Liquid, Vibrating tube method
[2] = Liquid, Vibrating tube method

[2H]O[2H] [water-d2] + CN1CCCN(C)C1=O
[1], m2 = 0
Settings | mass density [kg/m3]
278.15 K | 1105.59 ± 0.09
288.15 K | 1105.85 ± 0.09
298.15 K | 1104.43 ± 0.09
308.15 K | 1101.72 ± 0.09
313.15 K | 1099.93 ± 0.09
318.15 K | 1097.92 ± 0.09

CN1CCCN(C)C1=O [1,3-dimethyl-3,4,5,6-tetrahydro-2(1H)-pyrimidinone]
[2], 101.33 kPa
Settings | mass density [kg/m3]
278.15 K | 1076.18 ± 0.09
288.15 K | 1067.81 ± 0.09
298.15 K | 1059.46 ± 0.08
308.15 K | 1051.12 ± 0.08
313.15 K | 1046.95 ± 0.08
318.15 K | 1042.78 ± 0.08

[2H]O[2H] [water-d2]
[2], 101 kPa
Settings | mass density [kg/m3]
278.15 K | 1105.59 ± 0.09
288.15 K | 1105.85 ± 0.09
298.15 K | 1104.43 ± 0.09
308.15 K | 1101.72 ± 0.09
313.15 K | 1099.93 ± 0.09
318.15 K | 1097.92 ± 0.09

CN1CCCN(C)C1=O [1,3-dimethyl-3,4,5,6-tetrahydro-2(1H)-pyrimidinone] + O
mass density [kg/m3], [1]
Settings | 278.15 K | 288.15 K | 298.15 K | 308.15 K | 313.15 K | 318.15 K
m1 = 0.03864 | 1000.41 ± 0.04 | 999.51 ± 0.05 | 997.43 ± 0.05 | 994.38 ± 0.05 | 992.55 ± 0.05 | 990.54 ± 0.05
m1 = 0.07586 | 1000.85 ± 0.05 | 999.91 ± 0.04 | 997.79 ± 0.05 | 994.72 ± 0.05 | 992.88 ± 0.05 | 990.86 ± 0.05
m1 = 0.1037 | 1001.18 ± 0.05 | 1000.21 ± 0.05 | 998.07 ± 0.05 | 994.98 ± 0.05 | 993.12 ± 0.05 | 991.09 ± 0.05
m1 = 0.1575 | 1001.83 ± 0.05 | 1000.8 ± 0.05 | 998.61 ± 0.05 | 995.48 ± 0.05 | 993.6 ± 0.05 | 991.55 ± 0.05
m1 = 0.2215 | 1002.6 ± 0.05 | 1001.51 ± 0.05 | 999.26 ± 0.05 | 996.08 ± 0.05 | 994.18 ± 0.05 | 992.11 ± 0.05
m1 = 0.2812 | 1003.34 ± 0.05 | 1002.17 ± 0.05 | 999.87 ± 0.05 | 996.64 ± 0.05 | 994.72 ± 0.05 | 992.63 ± 0.05
m1 = 0.407 | 1004.9 ± 0.05 | 1003.6 ± 0.05 | 1001.17 ± 0.05 | 997.84 ± 0.05 | 995.87 ± 0.05 | 993.74 ± 0.05
m1 = 0.5303 | 1006.46 ± 0.05 | 1005.01 ± 0.05 | 1002.46 ± 0.05 | 999.04 ± 0.05 | 997.02 ± 0.05 | 994.85 ± 0.05
m1 = 0.6771 | 1008.32 ± 0.05 | 1006.7 ± 0.05 | 1004.01 ± 0.05 | 1000.47 ± 0.05 | 998.39 ± 0.05 | 996.17 ± 0.05
m1 = 0.8298 | 1010.25 ± 0.05 | 1008.46 ± 0.05 | 1005.62 ± 0.05 | 1001.96 ± 0.05 | 999.83 ± 0.05 | 997.56 ± 0.05
m1 = 0.9878 | 1012.23 ± 0.05 | 1010.27 ± 0.05 | 1007.28 ± 0.05 | 1003.5 ± 0.05 | 1001.31 ± 0.05 | 998.99 ± 0.05

CN1CCCN(C)C1=O [1,3-dimethyl-3,4,5,6-tetrahydro-2(1H)-pyrimidinone] + [2H]O[2H]
mass density [kg/m3], [1]
Settings | 278.15 K | 288.15 K | 298.15 K | 308.15 K | 313.15 K | 318.15 K
m1 = 0.0599 | 1105.6 ± 0.09 | 1105.78 ± 0.09 | 1104.3 ± 0.09 | 1101.53 ± 0.09 | 1099.72 ± 0.09 | 1097.69 ± 0.09
m1 = 0.08344 | 1105.61 ± 0.09 | 1105.76 ± 0.09 | 1104.25 ± 0.09 | 1101.47 ± 0.09 | 1099.64 ± 0.09 | 1097.6 ± 0.09
m1 = 0.1212 | 1105.63 ± 0.09 | 1105.73 ± 0.09 | 1104.18 ± 0.09 | 1101.36 ± 0.09 | 1099.52 ± 0.09 | 1097.47 ± 0.09
m1 = 0.1641 | 1105.66 ± 0.09 | 1105.71 ± 0.09 | 1104.11 ± 0.09 | 1101.25 ± 0.09 | 1099.39 ± 0.09 | 1097.32 ± 0.09
m1 = 0.2214 | 1105.72 ± 0.09 | 1105.69 ± 0.09 | 1104.03 ± 0.09 | 1101.11 ± 0.09 | 1099.23 ± 0.09 | 1097.13 ± 0.09
m1 = 0.3291 | 1105.85 ± 0.09 | 1105.68 ± 0.09 | 1103.9 ± 0.09 | 1100.88 ± 0.09 | 1098.96 ± 0.09 | 1096.82 ± 0.09
m1 = 0.5024 | 1106.17 ± 0.09 | 1105.76 ± 0.09 | 1103.77 ± 0.09 | 1100.59 ± 0.09 | 1098.6 ± 0.09 | 1096.39 ± 0.09
m1 = 0.6557 | 1106.53 ± 0.09 | 1105.89 ± 0.09 | 1103.73 ± 0.09 | 1100.4 ± 0.09 | 1098.34 ± 0.09 | 1096.07 ± 0.09
m1 = 0.7789 | 1106.85 ± 0.1 | 1106.03 ± 0.09 | 1103.73 ± 0.09 | 1100.28 ± 0.09 | 1098.17 ± 0.09 | 1095.85 ± 0.09
m1 = 0.9405 | 1107.31 ± 0.1 | 1106.25 ± 0.1 | 1103.76 ± 0.09 | 1100.16 ± 0.09 | 1097.99 ± 0.09 | 1095.61 ± 0.09
m1 = 1.074 | 1107.69 ± 0.1 | 1106.44 ± 0.1 | 1103.81 ± 0.09 | 1100.09 ± 0.09 | 1097.86 ± 0.09 | 1095.43 ± 0.09
